One assay addresses T1, KRas^G12R (Homo sapiens, UniProt P01116, G12R).
T1 construct: Biotinylated KRas (corresponding to amino acids 1-169, produced at Accelegan Inc.); biotin (biotinylated); purchased Accelegan Inc
Nature of the assay: KRas binding assay (TR-FRET tracer displacement), KRas G12R. Background: In TR-FRET formats the signal depends on donor and acceptor labels being close together.

In assay [1] the test system is KRas-mediated phosphorylation of ERK in MKN1 cells. Nature of the assay: Inhibition of KRas-mediated phosphorylation of ERK (Cisbio HTRF pERK), MKN1 cells. The format is cell-based. The note with it: Homo sapiens, MKN-1. In outline: (§1)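 Phospho-ERK is quantified by HTRF with the Advanced pERK kit. Cells go in at 6,000/well in RPMI plus 10% FBS overnight at 37° C. under 5% CO2, with a 4-hour covered room-temperature incubation ahead of the read.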

Assay [2] has as its system KRas-mediated phosphorylation of ERK in PSN1 cells. Nature of the assay: Inhibition of KRas-mediated phosphorylation of ERK (Cisbio HTRF pERK), PSN1 cells. In kind it is cell-based. The note with it: Homo sapiens. In a few lines: as §1
The next assay addresses T2, KRas^G12D (Homo sapiens, UniProt P01116, G12D).
T2 construct: Biotinylated KRas (corresponding to amino acids 1-169, produced at Accelegan Inc.); biotin (biotinylated); purchased Accelegan Inc
The experiment in a line: KRas binding assay (TR-FRET tracer displacement), KRas G12D.

The test system of assay [3] is KRas-mediated phosphorylation of ERK in H727 cells. The experiment in a line: Inhibition of KRas-mediated phosphorylation of ERK (Cisbio HTRF pERK), H727 cells. In kind it is cell-based. To be noted: Homo sapiens; for inhibition at 0.1 µM: NCI-H727, 3 h, single point, 100 nM compound, 3 hrs, H727 cells; for IC50: NCI-H727, H727 cells, HTRF pERK. In outline:
(§2)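 Signal read by HTRF (d2/Cryptate antibody pair, 2 hr room-temperature incubation on lysate). Cells: 6,000 per well, 3 hr compound exposure. Titration: 10 uM highest, 3-fold, 10 points.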

Assay [4] has as its system KRas-mediated phosphorylation of ERK in H460 cells. The experiment in a line: Inhibition of KRas-mediated phosphorylation of ERK (Cisbio HTRF pERK), H460 cells. The format is cell-based. The note with it: Homo sapiens; for inhibition at 0.1 µM: NCI-H460, 3 h, single point, 100 nM compound, 3 hrs; for IC50: NCI-H460, HTRF pERK. In a few lines: as §2
The test system of assay [5] is KRas-mediated phosphorylation of ERK in A549 cells. The experiment in a line: Inhibition of KRas-mediated phosphorylation of ERK (Cisbio HTRF pERK), A549 cells. The format is cell-based. The note with it: Homo sapiens; for inhibition at 0.1 µM: A549, 3 h, single point, 100 nM compound, 3 hrs. In outline:
(§3)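 Each compound was tested at 10 concentrations, threefold apart with 10 uM the highest, for 3 hrs on 6,000 seeded cells; final DMSO was 0.8% and Trametinib (0.2 uM) served as Min control. Lysed cells were analysed for pERK by HTRF.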

The subject of assay [6] is KRas-mediated phosphorylation of ERK in HCT116 cells. The experiment in a line: Inhibition of KRas-mediated phosphorylation of ERK (Cisbio HTRF pERK), HCT116 cells. The note with it: Homo sapiens; for inhibition at 0.1 µM: HCT-116, 3 h, single point, 100 nM compound, 3 hrs; for IC50: HCT-116, HTRF pERK. In kind it is cell-based. In outline: as §3
Another assay has as its target T3, KRas^G12V (Homo sapiens, UniProt P01116, G12V).
T3 construct: Biotinylated KRas (corresponding to amino acids 1-169, produced at Accelegan Inc.); biotin (biotinylated); purchased Accelegan Inc
The experiment in a line: KRas binding assay (TR-FRET tracer displacement), KRas G12V.

In assay [7] the test system is KRas-mediated phosphorylation of ERK in H358 cells. The experiment in a line: Inhibition of KRas-mediated phosphorylation of ERK (Cisbio HTRF pERK), H358 cells. In kind it is cell-based. The note with it: Homo sapiens; for inhibition at 0.1 µM: NCI-H358, 3 h, single point, 100 nM compound, 3 hrs. In a few lines:
as §2

Assay [8] concerns KRas-mediated phosphorylation of ERK in AsPC-1 cells. The experiment in a line: Inhibition of KRas-mediated phosphorylation of ERK (Cisbio HTRF pERK), AsPC-1 cells. The note with it: Homo sapiens; for inhibition at 0.1 µM: ASPC1, 3 h, single point, 100 nM compound, 3 hrs, AsPC-1 cells; for IC50: ASPC1, AsPC-1 cells, HTRF pERK. In kind it is cell-based. In a few lines: as §2

Bounds are passed on as bounds.

The term IC50 denotes the midpoint of a concentration-inhibition curve. A word on the inhibition: it is the drop in the measured response relative to a control, in per cent.

T1 sequence (P01116 1-169 isoform P01116-2 G12R): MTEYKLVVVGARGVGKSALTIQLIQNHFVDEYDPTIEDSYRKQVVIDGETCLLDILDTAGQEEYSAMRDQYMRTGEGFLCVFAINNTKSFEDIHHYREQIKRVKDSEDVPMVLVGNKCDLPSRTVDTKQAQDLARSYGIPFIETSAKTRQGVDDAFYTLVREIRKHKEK
T2 sequence (P01116 1-169 isoform P01116-2 G12D): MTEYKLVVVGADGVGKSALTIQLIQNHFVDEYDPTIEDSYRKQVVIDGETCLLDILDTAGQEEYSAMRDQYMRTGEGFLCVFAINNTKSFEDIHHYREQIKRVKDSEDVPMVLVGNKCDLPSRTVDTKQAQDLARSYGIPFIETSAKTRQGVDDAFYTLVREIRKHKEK
T3 sequence (P01116 1-169 isoform P01116-2 G12V): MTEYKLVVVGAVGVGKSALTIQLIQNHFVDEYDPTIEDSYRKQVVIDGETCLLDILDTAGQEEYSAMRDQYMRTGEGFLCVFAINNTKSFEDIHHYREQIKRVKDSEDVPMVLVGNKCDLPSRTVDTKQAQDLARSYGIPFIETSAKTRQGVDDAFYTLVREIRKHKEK

Regarding `CCc1c(F)ccc2cc(O)cc(-c3ncc4c(N5CCC(C#N)CC5)nc(OC[C@@]56CCCN5C[C@H](F)C6)nc4c3F)c12` [Example 544, 1-(7-(8-ethyl-7-fluoro-3-hydroxynaphthalen-1-yl)-8-fluoro-2-(((2R,7aS)-2-fluorohexahydro-1H-pyrrolizin-7a-yl)methoxy)pyrido[4,3-d]pyrimidin-4-yl)piperidine-4-carbonitrile], the half-maximal inhibitory concentration (IC50) was 4 nM on KRas^G12R; 25 nM in assay [1]; more than 10000 nM in [2]; 22 nM at KRas^G12D; 79 nM in assay [3]; 3 nM on KRas^G12V. For the same molecule, in [8], inhibition was half-maximal at 455 nM (IC50). The inhibition at 0.1 µM was 30% in assay [3]; 46% in [4]; 59% in assay [5]; 5% in [6]; 67% in assay [7]; -13% in [8].

`CCc1c(F)ccc2cc(O)cc(-c3ncc4c(N5CCCC6(CNC(=O)N6)C5)nc(OC[C@]56CCCN5[C@H](COC(=O)N(C)C)CC6)nc4c3F)c12` (stereo partly drawn) [Example 711, ((3S,7aR)-7a-(((7-(8-ethyl-7-fluoro-3-hydroxynaphthalen-1-yl)-8-fluoro-4-(2-oxo-1,3,7-triazaspiro[4.5]decan-7-yl)pyrido[4,3-d]pyrimidin-2-yl)oxy)methyl)hexahydro-1H-pyrrolizin-3-yl)methyl dimethylcarbamate]: the IC50 was less than 2 nM at KRas^G12R; 21 nM in assay [1]; 6220 nM in assay [2]; less than 2 nM on KRas^G12D; 196 nM in [3]; 109 nM in assay [4]. In addition, the IC50 in assay [6] is 247 nM; on KRas^G12V it was less than 2 nM; in assay [8] it was 121 nM. Also, the values for the inhibition at 0.1 µM in [5] and in [7] were 43% and 78%, respectively.

As to `CCc1c(F)ccc2cc(O)cc(-c3ncc4c(N5CCC[C@@](C)(O)C5)nc(OC[C@]56CCCN5[C@H](CNS(=O)(=O)N(C)C)CC6)nc4c3F)c12` [Example 720, N,N-dimethyl-(((3S,7aR)-7a-(((7-(8-ethyl-7-fluoro-3-hydroxynaphthalen-1-yl)-8-fluoro-4-((R)-3-hydroxy-3-methylpiperidin-1-yl)pyrido[4,3-d]pyrimidin-2-yl)oxy)methyl)hexahydro-1H-pyrrolizin-3-yl)methyl)aminosulfonamide], the IC50 was less than 2 nM at KRas^G12R; 6 nM in assay [1]; 1760 nM in assay [2]; less than 2 nM at KRas^G12D; 47 nM in assay [3]; less than 2 nM on KRas^G12V. Besides, the IC50 in [8] came to 19 nM. The inhibition at 0.1 µM in assay [3] was 43%; in assay [4], 80%; in [5], 64%; in assay [6] it was 51%; in assay [7], 85%; in [8], 70%.

With `C#Cc1c(F)ccc2cc(O)cc(-c3ncc4c(N5CCC[C@@](C)(O)C5)nc(OC[C@]56CCCN5[C@H](COC(=O)N(C)C)CC6)nc4c3F)c12` [Example 753, ((3S,7aR)-7a-(((7-(8-ethynyl-7-fluoro-3-hydroxynaphthalen-1-yl)-8-fluoro-4-((R)-3-hydroxy-3-methylpiperidin-1-yl)pyrido[4,3-d]pyrimidin-2-yl)oxy)methyl)hexahydro-1H-pyrrolizin-3-yl)methyl dimethylcarbamate], the IC50 was 2 nM on KRas^G12R; 14 nM in assay [1]; 3080 nM in [2]; less than 2 nM at KRas^G12D; 83 nM in [3]; less than 2 nM on KRas^G12V. Moreover, in [8], the concentration for half-maximal inhibition (IC50) is 69 nM. The inhibition at 0.1 µM in [4] was found to be 42%; in assay [5], 2%; in [6], 23%; in [7], 76%.

On to `O=C1CC2(CCCN(c3nc(OC[C@@]45CCCN4C[C@H](F)C5)nc4c(F)c(-c5cc(O)cc6ccc(F)c(Cl)c56)ncc34)C2)C(=O)N1` (stereo partly drawn) [Example 774, 7-(7-(8-chloro-7-fluoro-3-hydroxynaphthalen-1-yl)-8-fluoro-2-(((2R,7aS)-2-fluorohexahydro-1H-pyrrolizin-7a-yl)methoxy)pyrido[4,3-d]pyrimidin-4-yl)-2,7-diazaspiro[4.5]decane-1,3-dione], for which the half-inhibitory concentration (IC50) is less than 2 nM on KRas^G12R; 123 nM in [1]; 2340 nM in assay [2]; 2 nM on KRas^G12D; 138 nM in assay [3]; 434 nM in assay [4]. Also, the concentration for half-maximal inhibition (IC50) in assay [5] (HTRF pERK) is 924 nM; in assay [6] it was 506 nM; at KRas^G12V it was less than 2 nM; in assay [7] (NCI-H358, HTRF pERK), 121 nM; in assay [8] it was 852 nM.

Consider `CCc1c(F)ccc2cc(O)cc(-c3ncc4c(N5CCC[C@@](C)(O)C5)nc(OCC5(CN(C)C)CC56CC6)nc4c3F)c12` (stereo partly drawn) [Example 783, (3R)-1-(2-((1-((dimethylamino)methyl)spiro[2.2]pentan-1-yl)methoxy)-7-(8-ethyl-7-fluoro-3-hydroxynaphthalen-1-yl)-8-fluoropyrido[4,3-d]pyrimidin-4-yl)-3-methylpiperidin-3-ol], for which the IC50 on KRas^G12R was found to be 5 nM; in [1] it was 19 nM; in [2] it was 9780 nM; on KRas^G12D it was 2 nM; in assay [3], 187 nM; at KRas^G12V it was 2 nM. In addition, inhibition in assay [8] was half-maximal at 52 nM (IC50). Moreover, the inhibition at 0.1 µM in assay [3] is 12%; in [4] it was 47%; in assay [5], 34%; in assay [6], 31%; in [7], 62%; in assay [8], 47%.

Turning to `CCc1c(F)ccc2cc(O)cc(-c3ncc4c(N5CCC[C@@](C)(O)C5)nc(OC[C@@]56CCCN5[C@@H](CNS(=O)(=O)N(C)C)CC6)nc4c3F)c12` [Example 788, (R)-1-(7-(8-ethyl-7-fluoro-3-hydroxynaphthalen-1-yl)-8-fluoro-2-(((3R,7aS)-3-(((dimethylsulfamoyl)amino)methyl)tetrahydro-1H-pyrrolizin-7a(5H)-yl)methoxy)pyrido[4,3-d]pyrimidin-4-yl)-3-methylpiperidin-3-ol], the half-inhibitory concentration (IC50) on KRas^G12R is 4 nM; in [1], 13 nM; in assay [2], 2840 nM; on KRas^G12D, 2 nM; in assay [3], 211 nM; at KRas^G12V, less than 2 nM. Besides, it took 73 nM to reach half-maximal inhibition in assay [8] (IC50). Further, the inhibition at 0.1 µM in [3] turned out to be 41%; in assay [4], 47%; in assay [5] it was 38%; in assay [6], 33%; in assay [7] it was 75%; in assay [8], 45%.

Regarding `CCc1c(F)ccc2cc(O)cc(-c3ncc4c(N5CCC[C@@](C)(O)C5)nc(OC[C@@]56CCCN5[C@H](CNS(=O)(=O)N(C)C)CC6)nc4c3F)c12` [Example 789, (R)-1-(7-(8-ethyl-7-fluoro-3-hydroxynaphthalen-1-yl)-8-fluoro-2-(((3S,7aS)-3-(((dimethylsulfamoyl)amino)methyl)tetrahydro-1H-pyrrolizin-7a(5H)-yl)methoxy)pyrido[4,3-d]pyrimidin-4-yl)-3-methylpiperidin-3-ol], the half-maximal inhibitory concentration (IC50) on KRas^G12R is less than 2 nM; in assay [1], 6 nM; in [2], 1750 nM; on KRas^G12D it was less than 2 nM; in assay [3], 116 nM; on KRas^G12V, less than 2 nM. The molecule also came in with an IC50 in [8] of 32 nM. For the same molecule, the inhibition at 0.1 µM is 43% in assay [3]; 76% in [4]; 57% in assay [5]; 55% in assay [6]; 97% in assay [7]; 77% in assay [8].

These data come from patent US20260015350A1, “AZAQUINAZOLINE PAN-KRAS INHIBITORS” (Mirati Therapeutics, Inc., priority 2022, published 2026).
